{"source": "patent US20090215713A1", "about": "“Use of atp for the manufacture of a medicament for the prevention and treatment of oxidative stress and related conditions” (priority 2004, published 2009)", "key": {"TNF-α/IL-10 ratio [1]": {"test_system": "TNF-α/IL-10 ratio", "assay": "TNF-α/IL-10 ratio in whole blood incubated with H2O2 without LPS+PHA", "type": "cell-based, human", "conditions": "300 μM ATP, 5 mM H2O2, no LPS+PHA", "experimental": "FIG. 14 Effect of ATP on cytokine secretion in whole blood under conditions of oxidative stress. Blood was pre-incubated with ATP or no ATP (control) for 30 min, followed by incubation with H2O2 (5 mM) or 24 h, without addition of LPS+PHA. The TNF-α and IL-10 released into the supernatant was analyzed using the ELISA method. Results are expressed in percentage, 100% being the TNF-α/IL-10 ratio when blood was incubated with H2O2 only, but no ATP (control). The TNF-alpha/IL-10 ratio was reduced by ATP in a concentration-dependent manner, with a 90% reduction at 300 μM ATP, indicating inhibition of inflammatory response.\nThis experiment was performed to test the effects of ATP under circumstances of oxidative stress in healthy subjects, but without LPS-PHA induced stimulation of cytokine production. Whole blood was collected as described for experiment 2, and was pre-incubated with ATP at final concentrations of 100-300 μM, or no ATP (control), for 30 min. Then, blood was incubated with H2O2 (5 mM) or 24 h, without addition of LPS+PHA. and incubated for 24 hours with 5 mM H2O2 at 5% CO2 and 37° C. Cytokine production was measured as in Experiment 2. Results were expressed as the TNF-α/IL-10 ratio relative to the control condition (H2O2 without ATP)."}, "[2]": {"assay": "ATP infusions in a patient with rheumatoid arthritis", "type": "in vivo, human", "experimental": "Patients with different diseases received infusions of 10-75 μg/kg·min over 8-24 h, at intervals of 1-4 weeks in different randomized clinical trials. In all cases, the first. infusion was given under clinical supervision, subsequent infusions were given in the setting of private homes. Preliminary results in small numbers of patients with persistent rheumatoid arthritis, chronic fatigue syndrome, and cancer in the pre-terminal stage, and lung cancer during curative radiotherapy are given below.\n[…] […] DAS score had decreased from 5.80 to 3.09 and CRP had decreased from 43 to 6 mg/L.; all other blood values were normal. MD's conclusion: marked decease of disease activity."}, "TNF-α/IL-10 ratio [3]": {"test_system": "TNF-α/IL-10 ratio", "assay": "TNF-α/IL-10 ratio in whole blood from patients with oxidative stress-related diseases", "type": "cell-based, human", "conditions": "for reduction in the TNF-α/IL-10 ratio: 300 μM ATP", "experimental": "(§1) FIG. 15 Effect of ATP on the ratio of TNF-α/IL-10 secretion in whole blood from a patient with oxidative stress-related disease. […] In both experiments, TNF-α and IL-10 released into the supernatants was analyzed using the ELISA method. Results are expressed in percentage, 100% being the TNF-α/IL-10 ratio without ATP (control).\nas §1, with “16” for “15”, “(control). Both in untreated and in LPS-PHA stimulated blood, the ratio of TNF-α/IL-10 release from whole blood was reduced by the addition of ATP.” for “(control).”\nFIG. 17 Effect of ATP on the ratio of TNF-α/IL-10 secretion in whole blood from a patient with oxidative stress-related disease. […] TNF-α and IL-10 released into the supernatants was analyzed using the ELISA method. Results are expressed in percentage, 100% being the TNF-α/IL-10 ratio without ATP (control). The ratio of TNF-α/IL-10 release from whole blood was reduced by the addition of ATP.\nThis experiment was performed to test the effects of ATP ex vivo in whole blood collected from patients with oxidative stress-related diseases, both without and with LPS+PHA stimulation of cytokine production. Whole blood from 3 patients with different oxidative stress-related diseases was collected as described for experiment 2, and incubated for 24 hours at 5% CO2 and 37° C., with ATP added at a final concentration 300 μM, or no ATP (control). Cytokine production was measured as in Experiment 2. Results were expressed as the TNF-α/IL-10 ratio relative to the control condition (no ATP)."}, "TNFα": {"test_system": "TNFα", "assay": "TNFα secretion in whole blood after γ-irradiation", "type": "cell-based", "conditions": "300 μM ATP, 16 Gy, 3 and 5 h post-irradiation", "experimental": "FIG. 18 Effect of ATP on cytokine secretion in whole blood after γ-irradiation. Blood was pre-incubated with 300 μM ATP or medium (control) for 30 minutes and then irradiated with γ-radiation (16 Gy).\n(§2) Samples with 5 ml of blood were pre-incubated with 300 μM ATP or medium (control) for 30 minutes. Then, at t=0, each blood sample was irradiated with γ-radiation at a dose of 16 Gy. Preceding irradiation (baseline) and at 1 h, 3 h and 5 h post-irradiation, a sample was taken for analysis of intracellular GSH and GSH/GSSG ratios according to standard methods, as well as for cytokine analysis by the ELISA method."}, "GSH and GSH/GSSG ratios": {"test_system": "GSH and GSH/GSSG ratios", "assay": "Intracellular GSH and GSH/GSSG ratios in whole blood after γ-irradiation", "type": "cell-based", "conditions": "300 μM ATP, 16 Gy", "experimental": "as §2"}, "IL-10": {"test_system": "IL-10", "assay": "LPS+PHA-induced IL-10 secretion in whole blood from healthy subjects (ELISA)", "type": "cell-based, human", "conditions": "indicated ATP concentrations, 24 h", "experimental": "FIG. 8 Effect of ATP on LPS+PHA-induced IL-10 secretion in whole blood from healthy subjects. The whole blood was exposed to 10 μg/ml LPS and 1 μg/ml PHA with indicated concentrations of ATP for 24 h. The IL-10 released into the supernatants was analyzed using the ELISA method. Results are expressed in percentage, 100% being the IL-10 release under stimulation by LPS+PHA without ATP. […] Data are expressed as the mean values; error bars represent SEM. *, different from control (stimulation by LPS+PHA without ATP) (P<0.05).\nBlood was collected from 8 healthy subjects in heparin containing vacutainer tubes. All incubations were performed in duplicate. ATP was dissolved in RPMI 1640 culture medium, at a final concentration of 1-300 μM, and blood pre-incubated with ATP at 5% CO2 at 37 DC for 30 min. After stimulation with LPS en PHA (10 and 1 μg/ml final concentration, respectively), the plates were incubated in 5% CO2 at 37° C. for 24 h. Cell-free supernatant fluids were then collected by centrifugation (6000 rpm, 10 min at 4° C.) and stored at −20° C. until tested for presence of cytokines. All cytokines were quantified by means of PeliKine Compact human ELISA kits (CLB/Sanquin, The Netherlands), based on appropriate and validated sets of monoclonal antibodies.\nWhole blood was collected and stimulated with LPS+PHA as described for Experiment 2. […]"}, "[4]": {"conditions": "after 10 weekly infusions, 10-15 μg/kg·min"}}, "data": [{"smiles": "Nc1ncnc2c1ncn2[C@@H]1O[C@H](COP(=O)(O)OP(=O)(O)OP(=O)(O)O)[C@@H](O)[C@H]1O", "note": "[ATP, Adenosine 5′-triphosphate]", "values": [{"measurement": "reduction in the TNF-α/IL-10 ratio", "setting": "TNF-α/IL-10 ratio [1]", "result": 90, "unit": "%"}, {"measurement": "joint swelling and pain", "setting": "[2]; after 10 infusions", "result": "markedly decreased"}, {"measurement": "CRP", "setting": "[2]; [4]", "result": 6, "unit": "mg/L"}, {"measurement": "DAS score", "setting": "[2]; [4]", "result": 3.09}, {"measurement": "CRP", "setting": "[2]; before ATP", "result": 43, "unit": "mg/L"}, {"measurement": "DAS score", "setting": "[2]; before ATP", "result": 5.80}, {"measurement": "reduction in the TNF-α/IL-10 ratio", "setting": "TNF-α/IL-10 ratio [3]; patient blood stimulated with LPS+PHA, depending on the patient", "result": "40-80%"}, {"measurement": "reduction in the TNF-α/IL-10 ratio", "setting": "TNF-α/IL-10 ratio [3]; patient blood without LPS+PHA", "result": "60-80%"}, {"measurement": "effect on ratio of TNF-α/IL-10 release", "setting": "TNF-α/IL-10 ratio [3]; patient blood, untreated and/or LPS+PHA-stimulated", "result": "markedly reduced"}, {"measurement": "effect on irradiation-induced TNFα stimulation", "setting": "TNFα", "result": "completely blocked"}, {"measurement": "effect on irradiation-induced decrease in GSH and GSH/GSSG ratios", "setting": "GSH and GSH/GSSG ratios", "result": "attenuation"}, {"measurement": "effect on LPS+PHA-induced IL-10 release", "setting": "IL-10", "result": "significantly increased"}]}]}
